The target in experiment [1] is T1, Glucocorticoid receptor (Homo sapiens, UniProt P04150).
T1 sequence (P04150 whole entry): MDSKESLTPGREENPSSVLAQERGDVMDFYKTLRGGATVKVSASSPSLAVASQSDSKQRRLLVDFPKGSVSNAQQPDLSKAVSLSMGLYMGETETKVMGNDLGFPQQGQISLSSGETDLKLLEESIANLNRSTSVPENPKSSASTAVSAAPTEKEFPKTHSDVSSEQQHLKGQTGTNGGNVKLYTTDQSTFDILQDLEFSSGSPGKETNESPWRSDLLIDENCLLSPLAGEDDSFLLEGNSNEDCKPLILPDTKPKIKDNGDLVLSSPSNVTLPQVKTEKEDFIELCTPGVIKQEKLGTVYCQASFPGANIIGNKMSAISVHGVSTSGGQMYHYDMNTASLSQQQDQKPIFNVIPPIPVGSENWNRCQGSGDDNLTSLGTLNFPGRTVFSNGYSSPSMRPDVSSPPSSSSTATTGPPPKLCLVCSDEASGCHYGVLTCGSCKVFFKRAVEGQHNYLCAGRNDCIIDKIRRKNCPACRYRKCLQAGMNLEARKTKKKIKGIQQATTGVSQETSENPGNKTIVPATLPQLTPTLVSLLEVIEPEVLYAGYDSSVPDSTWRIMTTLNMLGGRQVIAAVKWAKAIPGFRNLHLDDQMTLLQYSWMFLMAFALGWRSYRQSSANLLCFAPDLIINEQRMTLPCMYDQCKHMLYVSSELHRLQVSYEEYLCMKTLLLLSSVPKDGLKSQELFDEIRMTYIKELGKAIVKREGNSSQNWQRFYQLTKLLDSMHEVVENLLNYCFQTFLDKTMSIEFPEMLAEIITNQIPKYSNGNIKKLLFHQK

Experiment [2] addresses T2, Mu-type opioid receptor (Homo sapiens, UniProt P35372).
Experiment [3] has as its target Histamine H3 receptor (Homo sapiens, UniProt Q9Y5N1).
Experiment [4] addresses T3, Muscarinic acetylcholine receptor M2 (Homo sapiens, UniProt P08172).
T3 sequence (P08172 whole entry): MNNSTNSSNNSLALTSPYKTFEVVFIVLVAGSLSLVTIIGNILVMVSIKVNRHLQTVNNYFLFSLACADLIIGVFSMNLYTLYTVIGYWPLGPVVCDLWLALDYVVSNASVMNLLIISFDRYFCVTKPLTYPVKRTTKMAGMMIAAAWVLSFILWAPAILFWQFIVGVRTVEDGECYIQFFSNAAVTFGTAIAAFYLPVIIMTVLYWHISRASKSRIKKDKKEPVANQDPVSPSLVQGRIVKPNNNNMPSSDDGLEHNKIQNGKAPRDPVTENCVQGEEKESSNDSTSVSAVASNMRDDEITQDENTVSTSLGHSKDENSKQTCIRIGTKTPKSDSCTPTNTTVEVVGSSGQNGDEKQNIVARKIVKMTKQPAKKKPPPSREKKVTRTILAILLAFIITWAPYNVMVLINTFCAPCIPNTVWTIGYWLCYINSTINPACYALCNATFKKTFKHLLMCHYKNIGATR
Format: functional, cell-based.

The target of experiment [5] is Voltage-dependent L-type calcium channel subunit alpha-1C (Rattus norvegicus, UniProt P22002). Format: functional.
The target of experiment [6] is Vasopressin V2 receptor (Homo sapiens, UniProt P30518).
Experiment [7] deals with T2, Mu-type opioid receptor. Put plainly: biochemical. Format: functional.
Experiment [8] addresses Prothrombin (Homo sapiens, UniProt P00734). Format: functional.
Experiment [9] deals with 5-hydroxytryptamine receptor 2B (Homo sapiens, UniProt P41595). Format: functional, cell-based.
Experiment [10] has as its target T3, Muscarinic acetylcholine receptor M2.
In experiment [11] the target is Sodium-dependent noradrenaline transporter (Homo sapiens, UniProt P23975).
Experiment [12] concerns the target T4, Thromboxane A2 receptor (Homo sapiens, UniProt P21731).
T4 sequence (P21731 whole entry): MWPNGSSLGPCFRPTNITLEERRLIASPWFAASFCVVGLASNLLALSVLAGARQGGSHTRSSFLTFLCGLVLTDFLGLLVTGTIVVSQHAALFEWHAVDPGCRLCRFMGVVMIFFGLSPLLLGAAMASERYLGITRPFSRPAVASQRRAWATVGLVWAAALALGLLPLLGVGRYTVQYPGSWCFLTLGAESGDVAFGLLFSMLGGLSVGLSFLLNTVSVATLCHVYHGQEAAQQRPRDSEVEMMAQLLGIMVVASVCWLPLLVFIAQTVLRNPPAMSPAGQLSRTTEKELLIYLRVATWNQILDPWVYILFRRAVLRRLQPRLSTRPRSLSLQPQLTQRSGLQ
Format: functional, cell-based.

Experiment [13] has as its target Prostaglandin G/H synthase 1 (Homo sapiens, UniProt P23219). Format: functional.
Experiment [14] concerns the target Muscarinic acetylcholine receptor M3 (Homo sapiens, UniProt P20309).

Data on 22 compounds can be found in ChEMBL document CHEMBL5291721, “A preclinical secondary pharmacology resource illuminates target-adverse drug reaction associations of marketed drugs” (Nat Commun, 2023).

Molecules are shown by their SMILES. Bounds are passed on as bounds.
Further: assay procedure not described here.

Sequence of Histamine H3 receptor (Q9Y5N1 whole entry): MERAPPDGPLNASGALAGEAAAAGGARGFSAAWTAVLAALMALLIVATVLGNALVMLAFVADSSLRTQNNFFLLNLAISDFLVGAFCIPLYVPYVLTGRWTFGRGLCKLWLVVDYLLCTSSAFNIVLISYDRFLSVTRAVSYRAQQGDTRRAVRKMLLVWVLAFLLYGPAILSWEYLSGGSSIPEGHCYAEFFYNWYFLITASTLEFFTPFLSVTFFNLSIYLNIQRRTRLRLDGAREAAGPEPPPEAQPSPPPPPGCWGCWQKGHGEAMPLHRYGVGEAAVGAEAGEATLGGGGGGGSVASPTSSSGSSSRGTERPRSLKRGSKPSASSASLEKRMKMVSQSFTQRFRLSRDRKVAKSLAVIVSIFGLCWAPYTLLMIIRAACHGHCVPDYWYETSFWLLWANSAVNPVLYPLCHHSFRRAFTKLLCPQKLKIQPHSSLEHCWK
Sequence of Muscarinic acetylcholine receptor M3 (P20309 whole entry): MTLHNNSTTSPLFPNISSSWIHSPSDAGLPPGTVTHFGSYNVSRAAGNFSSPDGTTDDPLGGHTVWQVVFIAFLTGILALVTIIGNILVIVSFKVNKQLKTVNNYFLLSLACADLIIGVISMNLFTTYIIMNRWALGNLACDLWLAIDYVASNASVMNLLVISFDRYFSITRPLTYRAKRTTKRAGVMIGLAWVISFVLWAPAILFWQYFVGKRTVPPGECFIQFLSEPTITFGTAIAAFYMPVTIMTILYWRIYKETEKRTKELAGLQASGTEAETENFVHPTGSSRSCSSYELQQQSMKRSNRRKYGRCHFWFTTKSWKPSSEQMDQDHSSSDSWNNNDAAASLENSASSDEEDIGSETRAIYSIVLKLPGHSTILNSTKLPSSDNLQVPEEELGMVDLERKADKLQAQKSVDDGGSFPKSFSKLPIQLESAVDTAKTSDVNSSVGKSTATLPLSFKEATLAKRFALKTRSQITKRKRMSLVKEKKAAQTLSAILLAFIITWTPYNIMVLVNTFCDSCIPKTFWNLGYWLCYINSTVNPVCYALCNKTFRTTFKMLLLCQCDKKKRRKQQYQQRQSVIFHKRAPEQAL
Sequence of Sodium-dependent noradrenaline transporter (P23975 whole entry): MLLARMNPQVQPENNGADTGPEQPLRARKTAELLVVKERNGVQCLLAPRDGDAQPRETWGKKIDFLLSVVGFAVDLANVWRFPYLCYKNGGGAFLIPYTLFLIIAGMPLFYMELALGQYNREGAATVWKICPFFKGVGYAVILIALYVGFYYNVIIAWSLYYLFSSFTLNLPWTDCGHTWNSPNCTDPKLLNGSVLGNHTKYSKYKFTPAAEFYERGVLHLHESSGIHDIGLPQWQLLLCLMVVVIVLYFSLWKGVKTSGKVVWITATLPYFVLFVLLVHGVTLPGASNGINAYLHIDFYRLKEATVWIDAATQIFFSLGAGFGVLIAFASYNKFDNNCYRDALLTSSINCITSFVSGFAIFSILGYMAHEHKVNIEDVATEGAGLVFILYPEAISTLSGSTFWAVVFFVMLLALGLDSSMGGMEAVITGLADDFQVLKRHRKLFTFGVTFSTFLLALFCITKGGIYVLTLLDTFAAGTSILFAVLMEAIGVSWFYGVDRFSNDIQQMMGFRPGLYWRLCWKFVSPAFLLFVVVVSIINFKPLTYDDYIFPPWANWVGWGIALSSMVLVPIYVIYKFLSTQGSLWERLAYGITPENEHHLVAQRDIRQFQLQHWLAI
T2 sequence (P35372 whole entry): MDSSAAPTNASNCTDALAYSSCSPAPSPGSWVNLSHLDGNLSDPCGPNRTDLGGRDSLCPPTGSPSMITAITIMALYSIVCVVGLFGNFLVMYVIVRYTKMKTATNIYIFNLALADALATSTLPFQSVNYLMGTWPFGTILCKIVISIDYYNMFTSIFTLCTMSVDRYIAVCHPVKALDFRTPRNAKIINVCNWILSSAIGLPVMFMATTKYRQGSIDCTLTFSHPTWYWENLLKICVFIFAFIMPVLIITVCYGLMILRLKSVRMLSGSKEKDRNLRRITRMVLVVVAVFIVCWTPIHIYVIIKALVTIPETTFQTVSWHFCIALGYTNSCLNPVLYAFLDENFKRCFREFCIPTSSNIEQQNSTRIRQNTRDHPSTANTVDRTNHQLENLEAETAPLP
Sequence of Voltage-dependent L-type calcium channel subunit alpha-1C (P22002 whole entry): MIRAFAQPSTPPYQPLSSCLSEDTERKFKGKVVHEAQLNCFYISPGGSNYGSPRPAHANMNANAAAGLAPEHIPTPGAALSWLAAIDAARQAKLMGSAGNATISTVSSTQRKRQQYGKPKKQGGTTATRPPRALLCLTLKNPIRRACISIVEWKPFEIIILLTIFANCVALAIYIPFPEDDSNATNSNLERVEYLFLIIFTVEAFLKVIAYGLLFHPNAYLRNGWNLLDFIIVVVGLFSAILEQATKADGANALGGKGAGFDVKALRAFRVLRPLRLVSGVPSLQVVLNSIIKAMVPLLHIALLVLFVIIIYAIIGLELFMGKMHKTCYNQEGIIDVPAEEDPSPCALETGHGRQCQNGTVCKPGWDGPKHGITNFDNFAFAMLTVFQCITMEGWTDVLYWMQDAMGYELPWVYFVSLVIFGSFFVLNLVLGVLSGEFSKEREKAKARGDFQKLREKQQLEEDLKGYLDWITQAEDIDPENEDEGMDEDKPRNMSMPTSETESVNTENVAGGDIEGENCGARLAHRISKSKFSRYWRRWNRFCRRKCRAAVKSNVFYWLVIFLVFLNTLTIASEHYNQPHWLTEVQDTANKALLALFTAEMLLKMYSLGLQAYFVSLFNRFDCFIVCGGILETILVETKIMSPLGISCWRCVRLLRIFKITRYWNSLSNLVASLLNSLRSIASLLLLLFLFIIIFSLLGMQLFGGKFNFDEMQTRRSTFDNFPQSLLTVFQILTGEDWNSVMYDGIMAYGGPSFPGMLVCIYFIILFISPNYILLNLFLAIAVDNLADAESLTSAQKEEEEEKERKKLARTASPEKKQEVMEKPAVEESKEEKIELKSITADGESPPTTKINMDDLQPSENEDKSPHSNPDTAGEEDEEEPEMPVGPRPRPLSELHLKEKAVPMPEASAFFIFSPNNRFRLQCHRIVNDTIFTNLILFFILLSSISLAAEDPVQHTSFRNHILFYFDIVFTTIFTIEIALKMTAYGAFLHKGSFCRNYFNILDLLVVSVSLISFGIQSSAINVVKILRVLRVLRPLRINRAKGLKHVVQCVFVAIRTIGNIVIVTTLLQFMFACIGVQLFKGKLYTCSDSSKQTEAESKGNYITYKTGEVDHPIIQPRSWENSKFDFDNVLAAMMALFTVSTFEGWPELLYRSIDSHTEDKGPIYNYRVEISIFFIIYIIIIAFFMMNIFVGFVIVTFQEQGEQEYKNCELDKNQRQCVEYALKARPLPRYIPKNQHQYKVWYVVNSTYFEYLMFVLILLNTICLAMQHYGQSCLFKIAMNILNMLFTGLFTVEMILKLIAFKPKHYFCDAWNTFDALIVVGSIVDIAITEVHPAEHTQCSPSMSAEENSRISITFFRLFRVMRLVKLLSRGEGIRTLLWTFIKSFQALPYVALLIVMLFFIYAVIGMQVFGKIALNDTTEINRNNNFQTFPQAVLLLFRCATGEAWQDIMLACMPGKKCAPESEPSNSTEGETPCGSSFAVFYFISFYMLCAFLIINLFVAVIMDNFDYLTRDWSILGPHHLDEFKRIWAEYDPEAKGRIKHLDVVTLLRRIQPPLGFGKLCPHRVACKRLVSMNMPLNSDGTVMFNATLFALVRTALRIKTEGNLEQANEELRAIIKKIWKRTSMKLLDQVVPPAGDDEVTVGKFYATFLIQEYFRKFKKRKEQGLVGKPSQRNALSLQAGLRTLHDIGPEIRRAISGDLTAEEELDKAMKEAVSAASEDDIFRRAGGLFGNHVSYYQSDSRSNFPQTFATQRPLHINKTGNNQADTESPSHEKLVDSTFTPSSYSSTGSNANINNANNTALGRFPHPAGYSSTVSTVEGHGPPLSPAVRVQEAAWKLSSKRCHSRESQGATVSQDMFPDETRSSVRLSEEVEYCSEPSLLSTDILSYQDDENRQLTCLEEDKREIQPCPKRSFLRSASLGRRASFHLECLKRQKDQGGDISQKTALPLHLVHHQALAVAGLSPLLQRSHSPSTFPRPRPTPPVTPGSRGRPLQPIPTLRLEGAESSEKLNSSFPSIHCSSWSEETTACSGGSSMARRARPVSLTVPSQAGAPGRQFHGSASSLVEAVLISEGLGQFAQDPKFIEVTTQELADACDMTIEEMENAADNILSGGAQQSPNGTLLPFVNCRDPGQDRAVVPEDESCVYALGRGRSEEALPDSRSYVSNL
Sequence of 5-hydroxytryptamine receptor 2B (P41595 whole entry): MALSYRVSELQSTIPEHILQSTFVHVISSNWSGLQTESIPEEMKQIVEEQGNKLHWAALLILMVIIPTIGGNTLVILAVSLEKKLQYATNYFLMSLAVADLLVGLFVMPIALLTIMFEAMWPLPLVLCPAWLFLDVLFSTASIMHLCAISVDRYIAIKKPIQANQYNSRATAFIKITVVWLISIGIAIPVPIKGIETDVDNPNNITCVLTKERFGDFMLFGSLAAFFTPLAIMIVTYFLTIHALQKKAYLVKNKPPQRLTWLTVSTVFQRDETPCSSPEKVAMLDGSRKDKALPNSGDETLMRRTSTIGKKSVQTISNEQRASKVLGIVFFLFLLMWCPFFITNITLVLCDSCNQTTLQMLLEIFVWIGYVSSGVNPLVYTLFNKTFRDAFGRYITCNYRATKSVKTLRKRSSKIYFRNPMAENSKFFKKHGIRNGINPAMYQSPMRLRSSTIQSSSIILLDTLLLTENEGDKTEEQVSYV
Sequence of Vasopressin V2 receptor (P30518 whole entry): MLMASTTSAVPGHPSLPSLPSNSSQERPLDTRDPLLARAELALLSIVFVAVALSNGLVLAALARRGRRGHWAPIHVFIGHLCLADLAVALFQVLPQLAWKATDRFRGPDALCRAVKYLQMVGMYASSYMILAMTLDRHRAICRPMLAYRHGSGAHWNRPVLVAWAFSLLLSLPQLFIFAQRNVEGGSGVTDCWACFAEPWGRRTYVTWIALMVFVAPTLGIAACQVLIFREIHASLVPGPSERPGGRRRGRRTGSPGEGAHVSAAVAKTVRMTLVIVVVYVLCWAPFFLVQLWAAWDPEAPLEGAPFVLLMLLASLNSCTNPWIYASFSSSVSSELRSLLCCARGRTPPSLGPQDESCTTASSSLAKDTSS

Broadly, the AC50 is the concentration at which the activity in the assay is half-maximal. Consider `NC(N)=Nc1nc(CSCCC(N)=NS(N)(=O)=O)cs1` [FAMOTIDINE], for which the AC50 was greater than 30 µM in [1]; greater than 10 µM in [2]; greater than 10 µM in experiment [3]; greater than 10 µM in experiment [4]; greater than 10 µM in [5]; greater than 30 µM in experiment [6].

In the case of `Cc1cccc(C)c1OCC(C)N` (stereo not given) [MEXILETINE], the AC50 in [7], in experiment [3], in [4] and in [6] was greater than 30 µM in each case.

Take `NS(=O)(=O)c1cc2c(cc1Cl)NCNS2(=O)=O` [HYDROCHLOROTHIAZIDE]: the AC50 in experiment [1] was greater than 30 µM; in experiment [2], greater than 10 µM; in [3], greater than 10 µM; in [4], greater than 10 µM; in experiment [5], greater than 10 µM; in experiment [6], greater than 30 µM.

`CC(C)(C(=O)c1cccnc1)c1cccnc1` [METYRAPONE]: the half-maximal activity concentration (AC50) in experiment [1] is greater than 10 µM; in experiment [2], greater than 30 µM; in experiment [4], greater than 10 µM; in experiment [5], greater than 10 µM; in experiment [6], greater than 10 µM.

`O=C1c2ccccc2C(=O)C1C(=O)C(c1ccccc1)c1ccccc1` [DIPHENADIONE]: the AC50 in [8] is greater than 30 µM; in experiment [9], greater than 30 µM; in experiment [10] it was greater than 30 µM; in experiment [11] it was greater than 30 µM; in experiment [12], 1.84 µM; in experiment [13], 20.4 µM.

Take `CCOC(=O)[C@H](CCc1ccccc1)N[C@@H](C)C(=O)N1CCC[C@H]1C(=O)O`: the AC50 in experiment [1] is greater than 30 µM; in [2], greater than 10 µM; in experiment [3], greater than 10 µM; in experiment [4], greater than 10 µM; in [5] it was greater than 10 µM; in [6] it was greater than 30 µM.

As for `CCC[C@@H]1C[C@@H](C(=O)N[C@@H]([C@H]2O[C@H](SC)[C@H](O)[C@@H](O)[C@H]2O)[C@H](C)Cl)N(C)C1` [CLINDAMYCIN], the AC50 is greater than 30 µM in experiment [2]; greater than 10 µM in [3]; greater than 10 µM in experiment [4]; greater than 10 µM in experiment [5]; greater than 30 µM in experiment [6].

On to `CCCS(=O)(=O)Nc1ccc(F)c(C(=O)c2c[nH]c3ncc(-c4ccc(Cl)cc4)cc23)c1F` [VEMURAFENIB], for which the half-maximal activity concentration (AC50) in [7], in experiment [1], in experiment [14], in experiment [3], in experiment [4] and in experiment [5] was greater than 30 µM throughout. For the same compound, the AC50 in experiment [6] was greater than 30 µM.

Turning to `N[C@@H](C(=O)N[C@@H]1C(=O)N2C(C(=O)O)=C(Cl)CS[C@H]12)c1ccccc1` [CEFACLOR ANHYDROUS], the AC50 in experiment [7], in experiment [1], in experiment [14], in [3], in [4] and in experiment [6] was greater than 30 µM each time.

For `CN1CCCC(n2nc(Cc3ccc(Cl)cc3)c3ccccc3c2=O)CC1` (stereo not given) [AZELASTINE], the AC50 in experiment [2] is 23 µM; in experiment [14], greater than 30 µM; in [3] it was 16 µM.

On to `O=C1CC[C@@]2(O)[C@H]3Cc4ccc(O)c5c4[C@@]2(CCN3CC2CC2)[C@H]1O5` [NALTREXONE], for which the AC50 in experiment [8], in experiment [9], in experiment [10], in experiment [11], in experiment [12] and in experiment [13] was greater than 30 µM throughout.

Take `NC(=O)c1ncn([C@@H]2O[C@H](CO)[C@@H](O)[C@H]2O)c1O` [MIZORIBINE]: the AC50 in [7], in experiment [1], in experiment [14], in experiment [3] and in experiment [6] was greater than 30 µM throughout.

Turning to `CC(N/C(=N\C#N)Nc1ccncc1)C(C)(C)C` (stereo not given) [PINACIDIL ANHYDROUS], the AC50 in experiment [8], in [9], in experiment [10], in experiment [11], in [12] and in [13] was greater than 30 µM throughout.

With `C#C[C@]1(O)CC[C@H]2[C@@H]3CCc4cc(O)ccc4[C@H]3CC[C@@]21C` [ETHINYL ESTRADIOL], the concentration at half-maximal activity (AC50) in experiment [8] was greater than 30 µM; in experiment [9] it was greater than 30 µM; in experiment [1], 0.12 µM; in experiment [10], greater than 30 µM; in experiment [2] it was greater than 30 µM; in experiment [12], greater than 10 µM. Further, the concentration at half-maximal activity (AC50) was greater than 10 µM in experiment [3]; greater than 10 µM in experiment [4]; greater than 10 µM in [5]; greater than 30 µM in experiment [6]; greater than 30 µM in [13].

Take `Cc1cc(O)cc(C)c1Cl` [CHLOROXYLENOL]: the AC50 was greater than 30 µM in experiment [8]; greater than 30 µM in experiment [9]; greater than 30 µM in experiment [10]; greater than 30 µM in [11]; 28.3 µM in experiment [12]; greater than 30 µM in [13].

For `COC(=O)N[C@H](C(=O)N1CCC[C@H]1c1nc(-c2ccc(-c3ccc(-c4c[nH]c([C@@H]5CCCN5C(=O)[C@@H](NC(=O)OC)C(C)C)n4)cc3)cc2)c[nH]1)C(C)C`, the half-maximal activity concentration (AC50) in [7], in experiment [1], in experiment [14], in experiment [3], in experiment [4] and in [5] was greater than 30 µM throughout. In [6], the AC50 was greater than 30 µM.

For the compound `CC[C@H](C)C(=O)O[C@H]1C[C@H](O)C=C2C=C[C@H](C)[C@H](CC[C@@H](O)C[C@@H](O)CC(=O)O)[C@H]21` [PRAVASTATIN], the AC50 was greater than 30 µM in experiment [2], greater than 30 µM in experiment [3], greater than 30 µM in experiment [4] and greater than 10 µM in [5].

In the case of `CC(C)NNC(=O)c1ccncc1` [IPRONIAZID], the AC50 in experiment [2], in experiment [3] and in [4] was greater than 30 µM throughout.

With `CN(C)CCCN1c2ccccc2CCc2ccc(Cl)cc21` [CLOMIPRAMINE], the AC50 is greater than 30 µM in experiment [9]; 0.451 µM in [10]; greater than 10 µM in [2]; 3.8 µM in [3]; greater than 10 µM in experiment [4]; greater than 10 µM in [5].

In the case of `CC(N)Cc1ccccc1` (stereo not given) [AMPHETAMINE], the AC50 in [1] was greater than 30 µM; in [14], greater than 30 µM; in experiment [3] it was greater than 30 µM; in experiment [4], greater than 30 µM; in [5] it was greater than 10 µM; in experiment [6], greater than 30 µM.

With `CCN(CC)CCNC(=O)c1cc(Cl)c(N)cc1OC` [METOCLOPRAMIDE], the AC50 in experiment [2] is greater than 30 µM; in [3], greater than 10 µM; in experiment [5], greater than 10 µM; in [6] it was greater than 30 µM.

Turning to `COc1ccc2c(c1)C(=O)N(CCc1ccc(S(=O)(=O)NC(=O)NC3CCCCC3)cc1)C(=O)C2(C)C` [GLIQUIDONE], the concentration at half-maximal activity (AC50) in experiment [7], in experiment [1], in experiment [14], in experiment [3], in [4] and in [5] was greater than 30 µM throughout. In experiment [6], this compound registered an AC50 greater than 30 µM.
